Reference: ChEMBL document CHEMBL1141511, “4,4-Dimethyl-1,2,3,4-tetrahydroquinoline-based PPARalpha/gamma agonists. Part I: synthesis and pharmacological evaluation” (Bioorg Med Chem Lett, 2008)
Active and inactive are the calls of the source. The calls are words filed in the database; no cut-off is given here.

Columns and labels:
[1] = target: T1, Peroxisome proliferator-activated receptor alpha (Homo sapiens, UniProt Q07869); assay: (§1) Agonist activity at human PPARalpha by GAL4 transactivation assay; format: functional
T1 sequence (Q07869 whole entry): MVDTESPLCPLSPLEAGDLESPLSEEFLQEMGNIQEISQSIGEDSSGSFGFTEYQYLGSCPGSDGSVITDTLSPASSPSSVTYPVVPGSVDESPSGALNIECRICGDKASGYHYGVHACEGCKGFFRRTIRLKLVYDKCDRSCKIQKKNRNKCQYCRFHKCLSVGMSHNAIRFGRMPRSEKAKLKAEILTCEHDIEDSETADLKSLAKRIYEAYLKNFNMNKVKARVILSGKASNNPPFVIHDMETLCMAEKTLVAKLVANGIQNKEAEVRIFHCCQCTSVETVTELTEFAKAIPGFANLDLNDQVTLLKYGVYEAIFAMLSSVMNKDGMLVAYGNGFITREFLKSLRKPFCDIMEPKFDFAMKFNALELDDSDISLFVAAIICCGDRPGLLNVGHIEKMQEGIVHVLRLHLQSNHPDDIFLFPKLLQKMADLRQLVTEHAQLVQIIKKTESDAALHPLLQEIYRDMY

[2] = target: T2, Peroxisome proliferator-activated receptor gamma (Homo sapiens, UniProt P37231)
T2 sequence (P37231 whole entry): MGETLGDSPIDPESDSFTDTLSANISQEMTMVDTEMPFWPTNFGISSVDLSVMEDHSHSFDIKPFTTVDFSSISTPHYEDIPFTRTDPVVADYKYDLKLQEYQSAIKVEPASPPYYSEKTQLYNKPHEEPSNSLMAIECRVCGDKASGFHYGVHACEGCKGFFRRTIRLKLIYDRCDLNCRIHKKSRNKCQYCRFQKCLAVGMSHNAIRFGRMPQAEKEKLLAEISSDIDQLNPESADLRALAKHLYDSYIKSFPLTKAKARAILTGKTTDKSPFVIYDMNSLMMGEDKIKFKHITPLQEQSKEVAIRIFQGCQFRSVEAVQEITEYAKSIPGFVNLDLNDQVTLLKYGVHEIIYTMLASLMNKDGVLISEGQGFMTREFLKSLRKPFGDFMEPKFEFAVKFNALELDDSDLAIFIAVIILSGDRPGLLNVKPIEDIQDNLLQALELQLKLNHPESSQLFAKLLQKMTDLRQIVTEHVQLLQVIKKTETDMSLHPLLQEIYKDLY

[3] = target: T3, Peroxisome proliferator-activated receptor alpha (Homo sapiens) (UniProt Q07869); assay: as §1; format: functional
T3 sequence (whole entry): T1 sequence (Q07869 whole entry)

EC50 [1] [nM]	Ki [2] [nM]	Activity [3]	Structure (SMILES)
414	18		CCO[C@@H](Cc1ccc(OCCc2ccc(OS(C)(=O)=O)cc2)cc1)C(=O)O [TESAGLITAZAR]
	10000	inactive	COC(=O)C(Cc1ccc(OCCN2CCC(C)(C)c3cc(C(=O)c4ccccc4)ccc32)cc1)C(=O)OC
189	618		CCOC(=O)C(Cc1ccc(OCCN2CCC(C)(C)c3cc(/C(=N\O)c4ccccc4)ccc32)cc1)OCC (stereo not drawn)
	10000	inactive	COC(=O)C(Cc1ccc(OCCN2CCC(C)(C)c3cc(/C(=N\O)c4ccccc4)ccc32)cc1)C(=O)OC
